Results reported in ChEMBL document CHEMBL3994588, “Importance of 5/6-aryl substitution on the pharmacological profile of 4'-((2-propyl-1H-benzo[d]imidazol-1-yl)methyl)-[1,1'-biphenyl]-2-carboxylic acid derived PPARγ agonists” (Eur J Med Chem, 2017).

How the values were obtained:
[1] = target: T1, Peroxisome proliferator-activated receptor gamma (Homo sapiens) (UniProt P37231); test: (§1) Transactivation of Gal4 fused human PPARgamma LBD expressed in African green monkey COS7 cells after 42 hrs by dual luciferase reporter gene assay; format: cell-based
T1 sequence (whole entry): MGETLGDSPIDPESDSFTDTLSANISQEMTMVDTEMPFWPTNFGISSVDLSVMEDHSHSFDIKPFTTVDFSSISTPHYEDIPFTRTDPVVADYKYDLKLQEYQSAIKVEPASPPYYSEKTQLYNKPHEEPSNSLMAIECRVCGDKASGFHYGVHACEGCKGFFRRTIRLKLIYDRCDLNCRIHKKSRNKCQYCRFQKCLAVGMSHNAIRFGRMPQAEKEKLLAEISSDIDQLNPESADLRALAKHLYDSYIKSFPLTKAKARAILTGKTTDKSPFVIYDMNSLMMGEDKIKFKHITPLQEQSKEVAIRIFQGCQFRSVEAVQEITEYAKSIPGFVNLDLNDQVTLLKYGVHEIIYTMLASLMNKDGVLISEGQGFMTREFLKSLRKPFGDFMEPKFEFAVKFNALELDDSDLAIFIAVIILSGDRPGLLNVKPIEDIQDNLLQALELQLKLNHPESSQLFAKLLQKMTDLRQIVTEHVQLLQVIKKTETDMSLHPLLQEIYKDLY

[2] = target: T2, Peroxisome proliferator-activated receptor gamma (Homo sapiens, UniProt P37231); test: as §1; format: cell-based
T2 sequence (P37231 whole entry): T1 sequence (whole entry)

| Compound | Activity [1] | EC50 ([2]; read-out: EC50) [µM] | EC50 [2] |
| --- | --- | --- | --- |
| CCCc1nc2ccc(-c3ccccc3Cl)cc2n1Cc1ccc(-c2ccccc2C(=O)O)cc1 | Dose-dependent effect | 1.39 | – |
| CCCc1nc2cc(-c3cccc(Cl)c3)ccc2n1Cc1ccc(-c2ccccc2C(=O)O)cc1 | – | – | Not Active |
| CCCc1nc2cc(-c3ccc(O)cc3)ccc2n1Cc1ccc(-c2ccccc2C(=O)O)cc1 | Dose-dependent effect | 1.01 | – |
| CCCc1nc2cc(-c3ccc(OC)cc3)ccc2n1Cc1ccc(-c2ccccc2C(=O)O)cc1 | Dose-dependent effect | 0.41 | – |
| CCCc1nc2cc(-c3ccccc3Cl)ccc2n1Cc1ccc(-c2ccccc2C(=O)O)cc1 | Dose-dependent effect | 0.93 | – |
| CCCc1nc2cc(-c3cccc(OC)c3)ccc2n1Cc1ccc(-c2ccccc2C(=O)O)cc1 | Dose-dependent effect | 0.29 | – |
| CCCc1nc2ccccc2n1Cc1ccc(-c2ccccc2C(=O)O)cc1 | Dose-dependent effect | 6.44 | – |
| CCCc1nc2cc(-c3cccc(O)c3)ccc2n1Cc1ccc(-c2ccccc2C(=O)O)cc1 | Dose-dependent effect | 1.25 | – |
| CCCc1nc2ccc(-c3cccc(OC)c3)cc2n1Cc1ccc(-c2ccccc2C(=O)O)cc1 | Dose-dependent effect | 1.35 | – |
| CCCc1nc2ccc(-c3ccc(OC)cc3)cc2n1Cc1ccc(-c2ccccc2C(=O)O)cc1 | Dose-dependent effect | 1.01 | – |
| CCCc1nc2ccc(-c3cccc(Cl)c3)cc2n1Cc1ccc(-c2ccccc2C(=O)O)cc1 | Dose-dependent effect | 0.77 | – |
| CCCc1nc2ccc(-c3cccc(O)c3)cc2n1Cc1ccc(-c2ccccc2C(=O)O)cc1 | Dose-dependent effect | 4.09 | – |
| CCCc1nc2ccc(-c3ccc(Cl)cc3)cc2n1Cc1ccc(-c2ccccc2C(=O)O)cc1 | Dose-dependent effect | 1.15 | – |
| CCCc1nc2cc(-c3ccc(Cl)cc3)ccc2n1Cc1ccc(-c2ccccc2C(=O)O)cc1 | Dose-dependent effect | 0.19 | – |
| CCCc1nc2ccc(-c3ccc(O)cc3)cc2n1Cc1ccc(-c2ccccc2C(=O)O)cc1 | Dose-dependent effect | 2.98 | – |
| CCCc1nc2c(C)cc(-c3nc4ccccc4n3C)cc2n1Cc1ccc(-c2ccccc2C(=O)O)cc1 | – | 4.97 | – |
